Experimental data: ChEMBL document CHEMBL1138223, “Synthesis of low-hemolytic antimicrobial dehydropeptides based on gramicidin s” (2006)
Values after ≈ are worked out from the molar mass of the structure shown. Active and inactive are the calls of the source. The calls are words filed in the database; no cut-off is given here. Numbered stars: 1 amine (or outer) side, 2 acyl side, 3 side chain; on linkers, the order of the positions; unused ones are H or OH. Square brackets hold non-standard residues; d marks the D form. Peptide text beside a SMILES is read from it. X1 = O=C(/C(=C/c1cccnc1)N[*:1])[*:2]; X2 = O=C(/C(=C/c1ccccc1)N[*:1])[*:2]; Orn = NCCC[C@H](N)C(=O)O

How the values were obtained:
Staphylococcus aureus = assay: Antimicrobial activity against Staphylococcus aureus 209P by liquid broth method; format: functional
Escherichia coli = assay: Antimicrobial activity against Escherichia coli K12 W3110 by liquid broth method; format: functional
Erythrocyte = assay: Induction of human erythrocyte hemolysis; format: functional, cell-based

MIC (Staphylococcus aureus) | MIC (Escherichia coli) | SMILES | Activity (Erythrocyte)
64 µg/mL (≈ 56 µM) | 64 µg/mL (≈ 56 µM) | CC(C)C[C@@H]1NC(=O)[C@H](CCCN)NC(=O)[C@H](C(C)C)NC(=O)[C@@H]2CCCN2C(=O)[C@@H](Cc2cccnc2)NC(=O)[C@H](CC(C)C)NC(=O)[C@H](CCCN)NC(=O)[C@H](C(C)C)NC(=O)[C@@H]2CCCN2C(=O)[C@@H](Cc2cccnc2)NC1=O | inactive
4 µg/mL (≈ 3.52 µM) | 32 µg/mL (≈ 28.1 µM) | CC(C)C[C@@H]1NC(=O)[C@H](CCCN)NC(=O)[C@H](C(C)C)NC(=O)[C@@H]2CCCN2C(=O)/C(=C/c2ccccc2)NC(=O)[C@H](CC(C)C)NC(=O)[C@H](CCCN)NC(=O)[C@H](C(C)C)NC(=O)[C@@H]2CCCN2C(=O)/C(=C/c2ccccc2)NC1=O (cyclo(L[X2]PV[Orn]L[X2]PV[Orn])) | 
4 µg/mL (≈ 3.41 µM) | 32 µg/mL (≈ 27.3 µM) | CC(C)C[C@@H]1NC(=O)[C@H](CCCN)NC(=O)[C@H](C(C)C)NC(=O)[C@@H]2CCCN2C(=O)[C@@H](Cc2ccc(O)cc2)NC(=O)[C@H](CC(C)C)NC(=O)[C@H](CCCN)NC(=O)[C@H](C(C)C)NC(=O)[C@@H]2CCCN2C(=O)[C@@H](Cc2ccc(O)cc2)NC1=O (cyclo(L[dY]PV[Orn]L[dY]PV[Orn])) | 
4 µg/mL (≈ 3.51 µM) | 32 µg/mL (≈ 28.1 µM) | CC(C)C[C@@H]1NC(=O)[C@H](CCCN)NC(=O)[C@H](C(C)C)NC(=O)[C@@H]2CCCN2C(=O)/C(=C/c2ccccc2)NC(=O)[C@H](CC(C)C)NC(=O)[C@H](CCCN)NC(=O)[C@H](C(C)C)NC(=O)[C@@H]2CCCN2C(=O)/C(=C/c2cccnc2)NC1=O (cyclo(L[X2]PV[Orn]L[X1]PV[Orn])) | 
8 µg/mL (≈ 7.02 µM) | 32 µg/mL (≈ 28.1 µM) | CC(C)C[C@@H]1NC(=O)[C@H](CCCN)NC(=O)[C@H](C(C)C)NC(=O)[C@@H]2CCCN2C(=O)/C(=C/c2cccnc2)NC(=O)[C@H](CC(C)C)NC(=O)[C@H](CCCN)NC(=O)[C@H](C(C)C)NC(=O)[C@@H]2CCCN2C(=O)/C(=C/c2cccnc2)NC1=O (cyclo(L[X1]PV[Orn]L[X1]PV[Orn])) | 

SMILES | MIC (Staphylococcus aureus) | MIC (Escherichia coli) | Activity (Erythrocyte)
CC(C)C[C@@H]1NC(=O)[C@H](CCCN)NC(=O)[C@H](C(C)C)NC(=O)[C@@H]2CCCN2C(=O)[C@@H](Cc2ccccc2)NC(=O)[C@H](CC(C)C)NC(=O)[C@H](CCCN)NC(=O)[C@H](C(C)C)NC(=O)[C@@H]2CCCN2C(=O)[C@@H](Cc2ccccc2)NC1=O [GRAMICIDIN S] (cyclo(L[dF]PV[Orn]L[dF]PV[Orn])) | 4 µg/mL (≈ 3.5 µM) | 16 µg/mL (≈ 14 µM) | 
